Data: article PMC7261837, “Circumdatin D Exerts Neuroprotective Effects by Attenuating LPS-Induced Pro-Inflammatory Responses and Downregulating Acetylcholinesterase Activity In Vitro and In Vivo” (Frontiers in Pharmacology, 2020)
pKd: −log10 of the molar value.

Key:
[1] = system: primary microglia cells; assay: NO, TNF-α and IL-1β production in LPS-induced primary microglia; type: cell-based, Sprague Dawley rats; conditions: 1.0 μg/ml LPS, 10, 20, 50 μM
Experimental: Primary microglia were prepared from the cortical tissue of neonatal (1–3 d) Sprague Dawley rats as [Ni and Aschner (2010)] described and primary cortical neurons were isolated from embryos of pregnant Sprague Dawley rats of E-18 ([Zeng et al., 2012]). All experimental manipulations with the animals was reviewed and approved by the animal experimental ethics committee of Peking University. The animals used in the work were performed in accordance with the Animal Care and Use Guidelines of Peking University.
(§1) The NO levels in culture media was determined using a Griess method. Cells were treated with different concentrations of circumdatins in the presence or absence of LPS for 24 h. After that, the supernatant fraction of the culture media was collected and mixed with the same volume of Griess reagent (1% sulfanilamide/0.1% naphthyl ethylene diamine dihydrochloride/2% H3PO4). Then, the absorbance was measured at 540 nm using a microplate spectrophotometer (Thermo Scientifics, USA). The concentration of nitrite was calculated from a calibration curve obtained from standards sodium nitrite solutions.
Cells were treated with different concentrations of circumdatin D in the presence or absence of LPS for indicated time. […] The levels of TNF-α and IL-β in the supernatants were determined by ELISA kits according to the manufacturer's instructions.

[2] = system: BV-2 cells; assay: LPS-induced NO production in BV-2 cells (Griess method); type: cell-based, murine; conditions: 1 μg/ml LPS, 24 h
Experimental: BV-2 cells (murine microglia cell line) was obtained from Peking Union Medical College, Cell Bank (Beijing, China) and maintained in DMEM containing 10% FBS. Cells were grown in a humidified atmosphere of 5% CO2 incubator at 37°C.
BV2 cells were seeded and incubated overnight, and followed by treatment with different doses of circumdatins for indicated period with or without LPS (1 μg/ml) stimulation. The cells without circumdatins and LPS treatment were used as the control group.
as §1

[3] = molecular target: Recombinant AChE (Homo sapiens, UniProt P22303); assay: biochemical; conditions: SPR, 25°C, 1:1 Langmuir binding model; read-out: AChE Affinity Kd
Experimental: The experiments for surface plasmon resonance (SPR) interaction were conducted at 25°C using the Biacore T200 system (GE Healthcare, Sweden). Recombinant AChE diluted in sodium acetate buffer (100 mM, pH 4.5) was used as the stock for the following experiments. CM5 sensor chips were coupled with AChE using an amine coupling kit (GE Healthcare, Buckinghamshire, UK). Thereafter, different concentrations of compounds were injected as analytes using PBS-P (10mM phosphate buffer with 2.7 mM KCl and 137 mM NaCl, 0.05% polysorbate 20, […]) as running buffer. For binding assays, the analytes were introduced with a 60 s contact time followed by a 60 s dissociation time at a flow rate of 45 μl/min. The surface was regenerated with 10 mM glycine (pH 3.0) for 30 s. The affinity constants were calculated using the 1:1 Langmuir binding model of Biacore evaluation software (T200 Version 1.0).

[4] = system: BV-2 cells; assay: Western blot of iNOS and COX-2 in LPS-induced BV-2 cells; type: cell-based, murine; conditions: 1 μg/ml LPS, 10, 20, 50 μM, 24 h
Experimental: (§2) Total cell proteins were lysed using cell extraction buffer containing phenylmethylsulfonyl ﬂuoride and protease inhibitor cocktail. The cytosolic and nuclear extracts were collected using the Nuclear and Cytosolic extraction kit. The protein extracts were separated on SDS-PAGE and transferred to PVDF membranes (Millipore). The membrane was blocked with 5% nonfat milk for 1 h at room temperature, and incubated with indicated primary antibodies overnight at 4°C. After washing, the membrane was incubated with secondary antibodies conjugated to horseradish peroxidase (Proteintech, USA) at room temperature for 1 h. Then, the proteins of interest were visualized utilizing a chemiluminescence (ECL) detection system. The relative optical densities were analyzed using the Image Master™ 2D Elite software.

[5] = system: BV-2 cells; assay: MTT cytotoxicity / cell survivability in BV-2 cells; type: cell-based, murine; conditions: 1 μg/ml LPS, doses 0–100 μM, 48 h
Experimental: In vitro cytotoxicity was detected using the MTT assay. Cells were treated with different concentrations of circumdatins in the presence or absence of LPS for 48 h. Then, MTT reagent was added to each well and the plates were further incubated at 37°C for 4 h. The absorbance was read at 570 nm using a microplate spectrophotometer (Thermo Scientifics, USA).
Cell surviability was detected using the MTT assay. Cells were seeded in 96-well plates and incubated overnight, following which the cells were treated with different concentrations of circumdatins with or without 1µg/mL of LPS for indicated time. Then, the cells were subsequently cultured with MTT and incubated for 4 hours at 37°C. Thereafter, the purple formazan dye was dissolved in DMSO and the absorbance was measured at 570 nm.

[6] = system: NF-κB signaling pathway; assay: NF-κB p65 translocation and IKK/IκB phosphorylation in LPS-induced BV-2 cells; type: cell-based, murine; conditions: 1 μg/ml LPS, 10, 20, 50 μM, 3 h
Experimental: (§3) BV2 cells were seeded on glass coverslips and treated with circumdatin D in the presence or absence of LPS for indicated time. After that, the cells were washed twice with PBS and fixed with cold 4% paraformaldehyde for 30 min. Then, the cells were permeabilized with 0.1% Triton X-100 for 10 min and blocked with 5% bovine serum albumin for 1 h. After incubation with primary antibodies overnight at 4°C, the cells were incubated with Alexa Fluor 488-conjugated secondary antibodies (Proteintech, USA) for 1 h at room temperature. Furthermore, Hochest 33342 was added to stain cell nuclei. Images were acquired and analyzed using a confocal microscope (Leica, Germany).
as §2

[7] = system: JaK2/STAT3 signaling pathway; assay: JaK2/STAT3 phosphorylation and STAT3 translocation in LPS-induced BV-2 cells; type: cell-based, murine; conditions: 1 μg/ml LPS, 10, 20, 50 μM, 3 h
Experimental: as §3
as §2, with “Then, the proteins of interest were visualized utilizing a chemiluminescence (ECL) detection system.” left out

[8] = system: ERK1/2-JNK1/2-p38 MAPKs; assay: MAPK phosphorylation in LPS-induced BV-2 cells (Western blot); type: cell-based, murine; conditions: 1 μg/ml LPS, 10, 20, 50 μM, 3 h
Experimental: as §2

[9] = system: C. elegans CL4176; assay: qRT-PCR of ace-1, ace-2, F22E5.6 and ZC239.12 in CL4176; type: in vivo, Caenorhabditis elegans; conditions: CL4176, 36 h post temperature up-shift
Text: Related gene expression levels were detected as [Xin et al. (2013)] described. After treatment, CL4176 worms were collected and total RNA was extracted using TRIzol method. The cDNA was synthesized using cDNA synthesis kit (Invitrogen) according to manual instructions. The mRNA expression of target genes viz. F22E5.6, ZC239.12, ace-1 and ace-2 was quantified in comparison to housekeeping gene F23B2.13 using SYBR green detection method on ABI 7500 system (Applied Biosystems). The relative gene expression was calculated using comparative Ct (ΔΔCt) method. The following primers in Table 2 were used in this study.

Sequence of Recombinant AChE (P22303 32-614): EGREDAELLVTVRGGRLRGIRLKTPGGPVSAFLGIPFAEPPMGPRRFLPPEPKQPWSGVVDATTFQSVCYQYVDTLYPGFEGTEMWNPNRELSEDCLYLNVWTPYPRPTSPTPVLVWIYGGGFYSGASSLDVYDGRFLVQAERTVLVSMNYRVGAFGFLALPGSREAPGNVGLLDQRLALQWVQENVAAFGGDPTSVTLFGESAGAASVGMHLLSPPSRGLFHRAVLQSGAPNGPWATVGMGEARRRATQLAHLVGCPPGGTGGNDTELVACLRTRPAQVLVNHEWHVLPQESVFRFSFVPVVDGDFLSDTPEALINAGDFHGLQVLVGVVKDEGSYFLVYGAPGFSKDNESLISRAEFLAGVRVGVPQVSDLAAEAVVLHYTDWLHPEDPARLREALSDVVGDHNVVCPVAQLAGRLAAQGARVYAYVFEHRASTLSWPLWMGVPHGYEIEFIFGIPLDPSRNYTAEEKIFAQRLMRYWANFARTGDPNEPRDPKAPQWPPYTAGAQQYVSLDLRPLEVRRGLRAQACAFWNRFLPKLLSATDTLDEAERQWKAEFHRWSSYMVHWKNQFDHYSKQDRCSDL

Compound: COc1ccc2c(c1)C(=O)N1CCC[C@H]1c1nc3ccc(OC)cc3c(=O)n1-2 [circumdatin D]
- LPS-stimulated production of NO, TNF-α and IL-1β [1]: significantly decreased the production of NO, TNF-α and IL-1β
- LPS-induced NO production [2]: significant reduction of NO levels
- pKd [3]: 5.72
- iNOS and COX-2 protein expression [4]: reduced LPS-induced COX-2 and iNOS expression dose-dependently
- cytotoxicity in the presence of LPS (MTT) [5]: did not induce significant cellular death
- NF-κB nuclear translocation (immunofluorescence) [6]: inhibited LPS-induced NF-κB nuclear translocation
- nuclear NF-κB p65 levels (Western blot) [6]: reduced nuclear NF-κB p65 levels significantly
- phosphorylation levels of IKK and IκB [6]: down-regulated the phosphorylation levels of IKK and IκB
- LPS-induced phosphorylation of JaK2 [7]: strongly reduced LPS-induced phosphorylation of JaK2
- phosphorylation and nuclear translocation of STAT3 [7]: effectively inhibited the phosphorylation and translocation of STAT3
- MAPK (ERK1/2, JNK1/2, p38) phosphorylation [8]: markedly suppressed the phosphorylation
- AChE genes (ace-1, ace-2) and inflammation related genes (F22E5.6, ZC239.12) expression [9]: inhibited temperature raise-induced AChE and inflammation-associated gene expressions
